In patent publication US11420969B2 (Exonate Limited, priority 2017, dated 2022):
pIC50: −log10 of the molar value.

What was measured:
[1] = test system: laser-induced choroidal neovascularisation (CNV) lesions; assay: In vivo angiogenesis assay: laser-induced choroidal neovascularisation (CNV); set-up: species or system C57/B6 mice; conditions: laser-induced mouse model of CNV; topical eye drops twice daily, 2 mg/mL, 10 μl; one week; FIG. 1(a)
Description: In Vivo Angiogenesis Assay: Laser-Induced Choroidal Neovascularisation (CNV) Protocol
6-8 week-old female C57/B6 mice were anesthetized with an intraperitoneal injection of a mixture of 50 mg/kg ketamine and 0.5 mg/kg medetomidine. The pupils were immediately dilated by topical (eyedrop) application with a dilator such as 5% phenylephrine hydrochloride and 1% tropicamide. Four photocoagulation lesions were delivered with a green Merilas 532α laser (450 mW, 130 ms) between the “large” retinal vessels in clear space with no vessels in a peripapillary distribution at a distance of 1-2 disc-diameters in each eye. Only clean laser lesions with a subretinal bubble at the time of treatment were included in the study. Immediately following laser photocoagulation the animals were given topical eye drops of candidate compounds twice daily (2 mg/mL, 10 μl, eyes held for 30 seconds to prevent animal wiping drop away).
After one week, mice were anesthetized with an intraperitoneal injection of a mixture of 50 mg/kg ketamine and 0.5 mg/kg medetomidine. The pupils were immediately dilated by topical (eyedrop) application with a dilator such as 5% phenylephrine hydrochloride and 1% tropicamide. Mice were administered an intraperitoneal injection of sodium fluorescein (10%). […]
The optical density of each well was measured immediately, using a microplate reader set to 450 nm.

CYP2C19 = biological target: T1, CYP2C19 (Homo sapiens, UniProt P33261); assay: CYP inhibition assay, human liver microsomes, substrate S-mephenytoin; type: in vitro ADME; conditions: human liver microsomes, 10 min incubation, LC-MS/MS; read-out: CYP Inhibition Activity (IC50/nM) CYP2C19
T1 construct: from tissue; host or cells: human liver microsomes
T1 sequence (P33261 whole entry): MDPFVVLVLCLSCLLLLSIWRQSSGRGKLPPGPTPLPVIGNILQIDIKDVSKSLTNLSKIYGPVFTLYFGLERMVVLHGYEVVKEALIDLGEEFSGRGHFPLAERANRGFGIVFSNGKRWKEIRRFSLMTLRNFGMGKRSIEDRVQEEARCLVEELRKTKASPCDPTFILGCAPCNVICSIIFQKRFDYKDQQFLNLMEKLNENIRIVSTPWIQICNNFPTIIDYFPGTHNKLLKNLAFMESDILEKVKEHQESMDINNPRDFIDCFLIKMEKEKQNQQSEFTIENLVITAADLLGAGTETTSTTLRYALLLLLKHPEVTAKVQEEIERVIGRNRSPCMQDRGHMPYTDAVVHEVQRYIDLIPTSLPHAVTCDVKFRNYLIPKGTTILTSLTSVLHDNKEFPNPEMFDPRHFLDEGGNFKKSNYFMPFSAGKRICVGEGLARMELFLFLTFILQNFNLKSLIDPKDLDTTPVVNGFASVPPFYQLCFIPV
In short: (§1)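 First, compound and the substrate pool are mixed and held at 37 °C for 20 min. Next, NADPH initiates a 10 min incubation at 37 °C. Finally, cold acetonitrile quenches the reaction and supernatant goes to LC-MS/MS.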

SRPK1 = SRPK1 (Homo sapiens, UniProt Q96SB4); assay: In vitro SRPK1 assay (Kinase-Glo); type: biochemical
SRPK1, sequence (Q96SB4 whole entry, species assumed): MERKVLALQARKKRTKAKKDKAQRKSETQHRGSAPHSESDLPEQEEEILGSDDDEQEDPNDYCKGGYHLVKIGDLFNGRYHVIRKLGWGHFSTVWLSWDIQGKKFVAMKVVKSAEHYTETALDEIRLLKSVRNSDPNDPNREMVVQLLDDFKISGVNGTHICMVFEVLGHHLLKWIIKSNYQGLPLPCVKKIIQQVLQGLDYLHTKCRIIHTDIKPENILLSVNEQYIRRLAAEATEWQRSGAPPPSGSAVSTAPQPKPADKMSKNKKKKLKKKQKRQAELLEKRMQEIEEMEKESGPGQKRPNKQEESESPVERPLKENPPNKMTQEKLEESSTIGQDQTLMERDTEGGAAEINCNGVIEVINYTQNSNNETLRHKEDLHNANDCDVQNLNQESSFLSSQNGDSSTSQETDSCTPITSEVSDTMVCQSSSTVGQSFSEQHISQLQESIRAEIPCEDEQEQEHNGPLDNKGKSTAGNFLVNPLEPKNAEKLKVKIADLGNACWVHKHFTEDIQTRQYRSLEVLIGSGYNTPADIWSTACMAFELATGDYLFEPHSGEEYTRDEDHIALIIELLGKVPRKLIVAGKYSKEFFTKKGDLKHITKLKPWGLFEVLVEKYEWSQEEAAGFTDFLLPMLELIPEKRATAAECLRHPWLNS

CYP3A4 = biological target: T2, CYP3A4 (Homo sapiens, UniProt P08684); assay: CYP inhibition assay, human liver microsomes, substrate midazolam; type: in vitro ADME; conditions: human liver microsomes, 10 min incubation, LC-MS/MS; read-out: CYP Inhibition Activity (IC50/nM) CYP3A4
T2 construct: from tissue; host or cells: human liver microsomes
T2 sequence (P08684 whole entry): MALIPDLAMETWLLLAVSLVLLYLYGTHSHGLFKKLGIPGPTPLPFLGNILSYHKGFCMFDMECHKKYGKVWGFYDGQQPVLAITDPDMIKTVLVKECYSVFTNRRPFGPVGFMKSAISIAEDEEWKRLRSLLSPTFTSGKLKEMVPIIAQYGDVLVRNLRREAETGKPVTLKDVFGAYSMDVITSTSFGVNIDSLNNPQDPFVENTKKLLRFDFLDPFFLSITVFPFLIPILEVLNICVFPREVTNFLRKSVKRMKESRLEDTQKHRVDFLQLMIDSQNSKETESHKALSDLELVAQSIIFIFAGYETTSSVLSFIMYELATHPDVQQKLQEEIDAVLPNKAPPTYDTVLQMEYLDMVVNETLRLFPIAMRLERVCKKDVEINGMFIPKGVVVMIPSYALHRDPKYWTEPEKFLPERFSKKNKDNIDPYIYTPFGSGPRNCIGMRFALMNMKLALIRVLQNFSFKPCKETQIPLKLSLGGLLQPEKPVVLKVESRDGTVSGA
In short: as §1

CYP2D6 = biological target: T3, CYP2D6 (Homo sapiens, UniProt P10635); assay: biochemical; type: in vitro ADME
T3 construct: from tissue; host or cells: human liver microsomes
T3 sequence (P10635 whole entry): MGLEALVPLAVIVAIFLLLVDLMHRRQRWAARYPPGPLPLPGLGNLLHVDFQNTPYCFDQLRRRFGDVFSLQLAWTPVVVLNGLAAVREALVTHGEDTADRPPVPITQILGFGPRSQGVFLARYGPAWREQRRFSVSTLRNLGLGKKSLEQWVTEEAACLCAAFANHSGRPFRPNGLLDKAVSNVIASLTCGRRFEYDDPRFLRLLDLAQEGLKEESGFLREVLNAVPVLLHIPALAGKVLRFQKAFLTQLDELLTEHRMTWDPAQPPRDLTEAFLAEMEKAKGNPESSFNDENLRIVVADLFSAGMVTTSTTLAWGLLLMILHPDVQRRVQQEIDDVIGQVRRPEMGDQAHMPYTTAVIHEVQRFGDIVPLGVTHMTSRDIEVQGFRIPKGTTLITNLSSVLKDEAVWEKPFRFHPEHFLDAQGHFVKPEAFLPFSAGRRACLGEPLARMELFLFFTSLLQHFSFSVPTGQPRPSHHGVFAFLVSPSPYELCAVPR
In short: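 Read-out is LC-MS/MS of supernatant, giving % inhibition and IC50 relative to a no-inhibitor ACN/DMSO control. Compound and substrate pool were pre-incubated 20 min at 37° C with human liver microsomes (working stock 0.253 mg/mL) before a 10 min NADPH-driven reaction, quenched with cold ACN.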

CYP2C9 = biological target: T4, CYP2C9 (Homo sapiens, UniProt P11712); assay: CYP inhibition assay, human liver microsomes, substrate diclofenac; type: in vitro ADME; conditions: human liver microsomes, 10 min incubation, LC-MS/MS; read-out: CYP Inhibition Activity (IC50/nM) CYP2C9
T4 construct: from tissue; host or cells: human liver microsomes
T4 sequence (P11712 whole entry): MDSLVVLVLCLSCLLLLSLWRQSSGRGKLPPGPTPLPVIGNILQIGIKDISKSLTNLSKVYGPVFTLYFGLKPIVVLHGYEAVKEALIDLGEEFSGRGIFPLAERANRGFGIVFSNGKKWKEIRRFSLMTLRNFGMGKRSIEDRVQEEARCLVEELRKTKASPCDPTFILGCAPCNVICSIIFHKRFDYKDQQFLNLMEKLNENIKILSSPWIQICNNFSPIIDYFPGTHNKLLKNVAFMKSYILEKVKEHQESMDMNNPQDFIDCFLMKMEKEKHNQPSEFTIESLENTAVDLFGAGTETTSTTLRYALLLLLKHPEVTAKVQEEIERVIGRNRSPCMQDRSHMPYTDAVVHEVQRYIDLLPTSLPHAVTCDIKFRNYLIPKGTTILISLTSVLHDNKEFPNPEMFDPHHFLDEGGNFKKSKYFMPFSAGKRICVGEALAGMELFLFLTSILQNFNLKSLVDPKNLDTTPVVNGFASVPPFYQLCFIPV
In short: as §1

CYP1A2 = biological target: T5, CYP1A2 (Homo sapiens, UniProt P05177); assay: CYP inhibition assay, human liver microsomes, substrate tacrine; type: in vitro ADME; conditions: human liver microsomes, 10 min incubation, LC-MS/MS; read-out: CYP Inhibition Activity (IC50/nM) CYP1A2
T5 construct: from tissue; host or cells: human liver microsomes
T5 sequence (P05177 1-516): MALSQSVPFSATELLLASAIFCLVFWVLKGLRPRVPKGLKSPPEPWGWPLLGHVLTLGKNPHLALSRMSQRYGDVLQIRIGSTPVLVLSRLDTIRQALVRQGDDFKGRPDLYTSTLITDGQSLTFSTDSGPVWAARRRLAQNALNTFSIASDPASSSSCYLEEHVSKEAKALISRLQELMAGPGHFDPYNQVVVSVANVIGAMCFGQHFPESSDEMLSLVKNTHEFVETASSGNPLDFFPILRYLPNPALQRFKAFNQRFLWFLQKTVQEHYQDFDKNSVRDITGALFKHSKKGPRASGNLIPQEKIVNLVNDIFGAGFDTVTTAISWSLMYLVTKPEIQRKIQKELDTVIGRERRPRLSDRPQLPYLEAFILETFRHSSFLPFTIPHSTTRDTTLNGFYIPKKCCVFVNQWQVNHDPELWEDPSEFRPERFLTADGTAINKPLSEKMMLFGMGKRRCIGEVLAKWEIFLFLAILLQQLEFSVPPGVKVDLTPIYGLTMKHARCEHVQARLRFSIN
In short: as §1

Row | Compound | anti-angiogenic activity on lesion size [1] | IC50 (CYP2C19) | IC50 (SRPK1) | IC50 (CYP3A4) | pIC50 (CYP2D6) | IC50 (CYP2C9) | IC50 (CYP1A2)
1 | CC1(O)CCN(c2ccc(Cl)cc2NC(=O)c2ccc(C3CCOCC3)o2)CC1 [Example 12] | improved anti-angiogenic activity on lesion size and the same efficacy as reference compounds | 11800 nM | 0.3 nM | 2660 nM | 4.63 | 6980 nM | 13900 nM
2 | CC1(O)CCCN(c2ccc(Cl)cc2NC(=O)c2ccc(-c3ccncc3)o2)CC1 (racemic) [Example 38, N-(5-chloro-2-(4-hydroxy-4-methylazepan-1-yl)phenyl)-5-(pyridin-4-yl)furan-2-carboxamide] | – | 7500 nM | 4 nM | 10000 nM | 4.81 | 7670 nM | 21700 nM
3 | CC1(CO)CCN(c2ccc(C3CC3)cc2NC(=O)c2ccc(C3CCOCC3)o2)CC1 [Example 67, N-(5-cyclopropyl-2-(4-(hydroxymethyl)-4-methylpiperidin-1-yl)phenyl)-5-(tetrahydro-2H-pyran-4-yl)furan-2-carboxamide] | – | 7900 nM | 4.1 nM | > 30000 nM | < 4.52 | 3300 nM | > 30000 nM
4 | CC1(CO)CCN(c2ccc(C(F)(F)F)cc2NC(=O)c2ccc(C3CCOCC3)o2)CC1 [Example 25, N-(2-(4-(hydroxymethyl)-4-methylpiperidin-1-yl)-5-(trifluoromethyl)phenyl)-5-(tetrahydro-2H-pyran-4-yl)furan-2-carboxamide] | – | 15800 nM | 2 nM | > 30000 nM | < 4.52 | 4960 nM | > 30000 nM
5 | O=C(Nc1cc(Cl)ccc1N1CCCC(O)CC1)c1ccc(-c2ccncc2)o1 (racemic) [Example 45, N-(5-chloro-2-(4-hydroxyazepan-1-yl)phenyl)-5-(pyridin-4-yl)furan-2-carboxamide] | – | 100 nM | 30 nM | 1430 nM | 6.18 | 410 nM | 550 nM
6 | CC1(O)CCN(c2ccc(C(F)(F)F)cc2NC(=O)c2ccc(C3CCOCC3)o2)CC1 [Example 11, N-(2-(4-hydroxy-4-methylpiperidin-1-yl)-5-(trifluoromethyl)-phenyl)-5-(tetrahydro-2H-pyran-4-yl)furan-2-carboxamide] | – | 10200 nM | 3 nM | 16300 nM | 4.81 | 9310 nM | 17900 nM
7 | CC1(C(N)=O)CCN(c2ccc(C(F)(F)F)cc2NC(=O)c2ccc(-c3ccncc3)o2)CC1 [Example 72, 4-methyl-1-(2-(5-(pyridin-4-yl)furan-2-carboxamido)-4-(trifluoromethyl)phenyl)-piperidine-4-carboxamide] | – | 7540 nM | 1.9 nM | 2370 nM | 5.38 | 2360 nM | > 30000 nM
8 | CN(C)C(=O)C1(C)CCN(c2ccc(C3CC3)cc2NC(=O)c2ccc(C3CCOCC3)o2)CC1 [Example 86, 1-(4-cyclopropyl-2-(5-(tetrahydro-2H-pyran-4-yl)furan-2-carboxamido)phenyl)-N,N,4-trimethyl-piperidine-4-carboxamide] | – | 4100 nM | 9 nM | 1100 nM | 4.72 | 200 nM | > 30000 nM
9 | O=C(Nc1cc(C(F)(F)F)ccc1N1CCC(O)(c2ccccc2)CC1)c1ccc(C2CCOCC2)o1 [Example 22, N-(2-(4-hydroxy-4-phenylpiperidin-1-yl)-5-(trifluoromethyl)-phenyl)-5-(tetrahydro-2H-pyran-4-yl)furan-2-carboxamide] | – | 12300 nM | 35 nM | 18800 nM | < 4.52 | 12700 nM | 15300 nM
10 | CC1(O)CCCN(c2ccc(C3CC3)cc2NC(=O)c2ccc(C3CCOCC3)o2)CC1 (racemic) [Example 42, N-(5-cyclopropyl-2-(4-hydroxy-4-methylazepan-1-yl)phenyl)-5-(tetrahydro-2H-pyran-4-yl)furan-2-carboxamide] | – | 530 nM | 13 nM | 10300 nM | 4.78 | 610 nM | > 30000 nM
11 | C[C@@]1(O)CCN(c2ccc(C(F)(F)F)cc2NC(=O)c2ccc(C3CCOCC3)o2)C1 [Example 50, (R)-N-(2-(3-hydroxy-3-methylpyrrolidin-1-yl)-5-(trifluoromethyl)phenyl)-5-(tetrahydro-2H-pyran-4-yl)furan-2-carboxamide] | – | 24500 nM | 28.8 nM | > 30000 nM | < 4.52 | 9000 nM | 5300 nM
12 | CN(C)CC1(C)CCN(c2ccc(Cl)cc2NC(=O)c2ccc(C3CCOCC3)o2)CC1 [Example 91, N-(5-chloro-2-(4-((dimethylamino)methyl)-4-methylpiperidin-1-yl)phenyl)-5-(tetrahydro-2H-pyran-4-yl)furan-2-carboxamide] | – | 20800 nM | 41 nM | 19000 nM | 6.70 | 14900 nM | > 30000 nM
13 | O=C(Nc1cc(Cl)ccc1N1CCC(O)CC1)c1ccc(C2CCOCC2)o1 [Example 62, N-(5-chloro-2-(4-hydroxypiperidin-1-yl)phenyl)-5-(tetrahydro-2H-pyran-4-yl)furan-2-carboxamide] | – | 12200 nM | 1.5 nM | > 30000 nM | 4.61 | 11000 nM | > 30000 nM
14 | CC1(O)CCN(c2ccc(C3CC3)cc2NC(=O)c2ccc(C3CCOCC3)o2)C1 (racemic) [Example 59, N-(5-cyclopropyl-2-(3-hydroxy-3-methyl-pyrrolidin-1-yl)phenyl)-5-(tetrahydro-2H-pyran-4-yl)furan-2-carboxamide] | – | 10500 nM | 54 nM | > 30000 nM | 4.62 | 15000 nM | 10500 nM
15 | COc1ccc(N2CCC(C)(CN(C)C)CC2)c(NC(=O)c2ccc(C3CCOCC3)o2)c1 [Example 92, N-(2-(4-((dimethylamino)methyl)-4-methyl-piperidin-1-yl)-5-methoxyphenyl)-5-(tetrahydro-2H-pyran-4-yl)furan-2-carboxamide] | – | > 30000 nM | 150 nM | > 30000 nM | 5.82 | 10400 nM | > 30000 nM
16 | C[C@]1(O)CCN(c2ccc(C(F)(F)F)cc2NC(=O)c2ccc(C3CCOCC3)o2)C1 [Example 51, (S)-N-(2-(3-hydroxy-3-methylpyrrolidin-1-yl)-5-(trifluoromethyl)phenyl)-5-(tetrahydro-2H-pyran-4-yl)furan-2-carboxamide] | – | 20100 nM | 96 nM | > 30000 nM | < 4.52 | > 30000 nM | > 30000 nM
